Experiment [1] has as its target NDM-1 (Klebsiella pneumoniae, UniProt C7C422). The experiment in a line: biochemical. It counts as biochemical. The conditions noted are these: NDM-1 enzyme, CCF2-FA substrate; read-out: NDM-1 IC50.
Description: Enzyme Activity: Determination of IC50
(§2) The Class B enzyme activities were measured in the presence of the test inhibitor in a fluorescence assay against a commercially available substrate consisting of a cephalosporin core linking 7-hydroxycoumarin to fluorescein (CCF2-FA). The enzyme (NDM-1, IMP-1 or VIM-1) and the substrate were diluted in 100 mM KH2PO4 buffer (pH 7) containing 0.005% Tween-20 and 10 μM ZnSO4. […] The test inhibitor was dissolved in dimethylsulfoxide and diluted 1:50 in the assay, resulting in a final concentration range of 20 uM to 0.00063 uM. In a 384-well microplate, the test inhibitor was incubated with the metallo-β-lactamase enzyme and the substrate for 2 hours at 25° C. Fluorescence at 460 nm following excitation at 405 nm was measured. The IC50 value was determined from semi-logarithmic plots of enzyme inhibition versus inhibitor concentration, with a curve generated using a 4-parameter fit.
In experiment [2] the target is VIM-1 (Pseudomonas aeruginosa (strain ATCC 15692 / DSM 22644 / CIP 104116 / JCM 14847 / LMG 12228 / 1C / PRS 101 / PAO1), UniProt A0A0F7KYQ8). Nature of the experiment: Enzyme activity: determination of IC50, fluorescence assay with CCF2-FA substrate (VIM-1). Type of experiment: biochemical. Particulars: CCF2-FA substrate.
Description: Enzyme Activity: Determination of IC50
as §2
For experiment [3], the target named is IMP-1 (Serratia marcescens, UniProt P52699). The experiment in a line: biochemical. Type of experiment: biochemical. Particulars: IMP-1 enzyme, CCF2-FA substrate; read-out: IMP-1 IC50.
Chain of IMP-1 (P52699 whole entry, looked up): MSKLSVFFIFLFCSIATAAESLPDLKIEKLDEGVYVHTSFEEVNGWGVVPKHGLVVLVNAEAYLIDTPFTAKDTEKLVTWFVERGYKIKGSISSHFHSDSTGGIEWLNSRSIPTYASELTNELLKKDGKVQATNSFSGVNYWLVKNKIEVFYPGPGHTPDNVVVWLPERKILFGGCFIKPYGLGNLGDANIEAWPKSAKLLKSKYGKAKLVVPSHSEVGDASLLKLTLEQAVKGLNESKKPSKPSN
Experiment [4] deals with Serratia marcescens expressing IMP-1 (CL5741). The experiment in a line: Antibiotic potentiation activity: synergistic concentration (MITC95) with imipenem, OD600 growth. Type of experiment: cell-based. The conditions noted are these: Serratia marcescens CL5741 (IMP-1), 95% growth inhibition. A digest of the protocol: (§1)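 Absorbance after a 22–24 h, 35 °C incubation served as the read-out. Wells held bacteria (saline suspension diluted 1:100 into 1.1× CAMHB), imipenem at 4 μg/ml final or optionally 1 μg/ml, and test compound.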

The test system of experiment [5] is Klebsiella pneumoniae expressing VIM-1 (IHMA599644). The description is as above. It counts as cell-based. The conditions noted are these: Klebsiella pneumoniae IHMA599644 (VIM-1), 95% growth inhibition. The essentials:
as §1

The subject of experiment [6] is Escherichia coli expressing NDM-1 (CLB30016). Described as above. It counts as cell-based. Particulars: (CLB30016, NDM-1), 95% growth inhibition. The essentials:
as §1

[7] abbreviates: VIM-1 enzyme, read-out: VIM-1 IC50.

Molecules are shown by their SMILES. Like-named read-outs stand apart in the source and are kept apart here.

Chain of NDM-1 (C7C422 whole entry, looked up, species assumed): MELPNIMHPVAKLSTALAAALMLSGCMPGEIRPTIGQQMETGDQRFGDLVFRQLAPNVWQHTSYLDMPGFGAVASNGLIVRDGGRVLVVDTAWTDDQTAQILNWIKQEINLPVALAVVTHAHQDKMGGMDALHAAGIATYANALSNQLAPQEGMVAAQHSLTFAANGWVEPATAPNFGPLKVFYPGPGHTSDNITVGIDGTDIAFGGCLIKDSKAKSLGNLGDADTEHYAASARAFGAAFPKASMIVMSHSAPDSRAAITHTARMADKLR

In the case of `NS(=O)(=O)c1c(CCCCCCO)ccc(CCCCCCO)c1-c1nn[nH]n1` [Example 543, 3,6-Bis(6-hydroxyhexyl)-2-(2H-tetrazol-5-yl)benzenesulfonamide], the IC50 was 2620 pM in experiment [1], 3210 pM in experiment [2] (setting [7]) and 1160 pM in experiment [3]. The “Serratia marcescens MITC95” value in experiment [4] came to 12.5 µM. In addition, in experiment [5], the “Klebsiella pneumoniae MITC95” value is more than 200 µM. The “Escherichia coli MITC95” value in experiment [6] amounted to 50 µM.

On to `Nc1nc2c(-c3ccc(CC4CNC4)c(S(N)(=O)=O)c3-c3nn[nH]n3)cccc2s1` [Example 545, 3-(2-aminobenzo[d]thiazol-4-yl)-6-(azetidin-3-ylmethyl)-2-(2H-tetrazol-5-yl)benzenesulfonamide], for which the IC50 turned out to be 2720 pM in experiment [1]; 7690 pM in experiment [2] (VIM-1 IC50, VIM-1 enzyme); 21800 pM in experiment [3]. Moreover, in experiment [4], the “Serratia marcescens MITC95” value turned out to be 3.125 µM. Besides, the “Klebsiella pneumoniae MITC95” value in experiment [5] stood at 3.125 µM. Further, in experiment [6], the “Escherichia coli MITC95” value is 0.7813 µM.

On to `NS(=O)(=O)c1c(CC2CNC2)ccc(-c2cnc3ccccn23)c1-c1nn[nH]n1` [Example 546, 6-(azetidin-3-ylmethyl)-3-(imidazo[1,2-a]pyridin-3-yl)-2-(2H-tetrazol-5-yl)benzenesulfonamide], for which the results for the IC50 in experiment [1], in experiment [2] (setting [7]) and in experiment [3] were 33800 pM, 38600 pM and 178000 pM, respectively. The “Serratia marcescens MITC95” value in experiment [4] is 12.5 µM. For the same compound, in experiment [5], the “Klebsiella pneumoniae MITC95” value was 12.5 µM. Moreover, the “Escherichia coli MITC95” value in experiment [6] was found to be 1.563 µM.

With `N[C@]1(c2ccc(-c3ccc(C(F)(F)F)c(S(N)(=O)=O)c3-c3nn[nH]n3)cc2)CCNC1` [Example 547, 3-[4-[(3S)-3-aminopyrrolidin-3-yl]phenyl]-2-(2H-tetrazol-5-yl)-6-(trifluoromethyl)benzenesulfonamide], the IC50 stood at 9320 pM in experiment [1], 1180 pM in experiment [2] (setting [7]) and 9140 pM in experiment [3]. In experiment [4], the “Serratia marcescens MITC95” value was 3.125 µM. Further, the “Klebsiella pneumoniae MITC95” value in experiment [5] came out at 6.25 µM. Further, the “Escherichia coli MITC95” value in experiment [6] came out at 6.25 µM.

Regarding `N[C@@]1(c2ccc(-c3ccc(C(F)(F)F)c(S(N)(=O)=O)c3-c3nn[nH]n3)cc2)CCNC1` [Example 548, 3-[4-[(3R)-3-aminopyrrolidin-3-yl]phenyl]-2-(2H-tetrazol-5-yl)-6-(trifluoromethyl)benzenesulfonamide], the figures for the IC50 in experiment [1], in experiment [2] (setting [7]) and in experiment [3] were 7540 pM, 519 pM and 10500 pM, respectively. For the same compound, the “Serratia marcescens MITC95” value in experiment [4] was determined as 3.125 µM. Moreover, the “Klebsiella pneumoniae MITC95” value in experiment [5] amounted to 1.563 µM. In addition, the “Escherichia coli MITC95” value in experiment [6] was 3.125 µM.

In the case of `Nc1nc2ccc(-c3ccc(C(F)(F)F)c(S(N)(=O)=O)c3-c3nnn[nH]3)cc2s1` [Example 549, 3-(2-amino-1,3-benzothiazol-6-yl)-2-(1H-tetrazol-5-yl)-6-(trifluoromethyl)benzenesulfonamide], the IC50 turned out to be 256 pM in experiment [1]; 62.9 pM in experiment [2] (VIM-1 IC50, VIM-1 enzyme); 472 pM in experiment [3]. Moreover, in experiment [4], the “Serratia marcescens MITC95” value was found to be 3.125 µM. Further, in experiment [5], the “Klebsiella pneumoniae MITC95” value came to 6.25 µM. In experiment [6], the “Escherichia coli MITC95” value stood at 1.563 µM.

For `Nc1nc2cc(-c3ccc(C(F)(F)F)c(S(N)(=O)=O)c3-c3nnn[nH]3)ccc2s1` [Example 550, 3-(2-amino-1,3-benzothiazol-5-yl)-2-(1H-tetrazol-5-yl)-6-(trifluoromethyl)benzenesulfonamide], the IC50 in experiment [1] came out at 753 pM; in experiment [2] (setting [7]), 315 pM; in experiment [3], 2520 pM. In experiment [4], the “Serratia marcescens MITC95” value was 3.125 µM. Further, in experiment [5], the “Klebsiella pneumoniae MITC95” value came out at 12.5 µM. In addition, the “Escherichia coli MITC95” value in experiment [6] was 3.125 µM.

`Nc1nc2cccc(-c3ccc(C(F)(F)F)c(S(N)(=O)=O)c3-c3nnn[nH]3)c2[nH]1` [Example 551, 3-(2-amino-3H-benzimidazol-4-yl)-2-(1H-tetrazol-5-yl)-6-(trifluoromethyl)benzenesulfonamide]: the IC50 came to 142 pM in experiment [1], 260 pM in experiment [2] (setting [7]) and 3800 pM in experiment [3]. Besides, the “Serratia marcescens MITC95” value in experiment [4] was 0.7813 µM. The “Klebsiella pneumoniae MITC95” value in experiment [5] worked out at 1.563 µM. In addition, in experiment [6], the “Escherichia coli MITC95” value worked out at 0.3906 µM.

Turning to `Nc1nc2ccc(-c3ccc(C(F)(F)F)c(S(N)(=O)=O)c3-c3nnn[nH]3)cc2[nH]1` [Example 552, 3-(2-amino-3H-benzimidazol-5-yl)-2-(1H-tetrazol-5-yl)-6-(trifluoromethyl)benzenesulfonamide], the IC50 in experiment [1] was 1320 pM; in experiment [2] (VIM-1 IC50, VIM-1 enzyme), 262 pM; in experiment [3], 7200 pM. Besides, the “Serratia marcescens MITC95” value in experiment [4] was found to be 1.563 µM. The “Klebsiella pneumoniae MITC95” value in experiment [5] was 1.563 µM. Also, in experiment [6], the “Escherichia coli MITC95” value turned out to be 0.3906 µM.

Turning to `Nc1nc2cccc(-c3ccc(C(F)(F)F)c(S(N)(=O)=O)c3-c3nnn[nH]3)c2s1` [Example 553, 3-(2-amino-1,3-benzothiazol-7-yl)-2-(1H-tetrazol-5-yl)-6-(trifluoromethyl)benzenesulfonamide], the IC50 was determined as 49.9 pM in experiment [1], 62.4 pM in experiment [2] (setting [7]) and 958 pM in experiment [3]. The “Serratia marcescens MITC95” value in experiment [4] is 3.125 µM. For the same compound, the “Klebsiella pneumoniae MITC95” value in experiment [5] is 3.125 µM. Besides, the “Escherichia coli MITC95” value in experiment [6] is 3.125 µM.

Consider `Nc1ccc2cccc(-c3ccc(C(F)(F)F)c(S(N)(=O)=O)c3-c3nn[nH]n3)c2n1` [Example 554, 3-(2-amino-8-quinolyl)-2-(2H-tetrazol-5-yl)-6-(trifluoromethyl)benzenesulfonamide], for which the IC50 in experiment [1] was determined as 115 pM; in experiment [2] (setting [7]) it was 363 pM; in experiment [3], 818 pM. The “Serratia marcescens MITC95” value in experiment [4] came to 1.563 µM. Further, the “Klebsiella pneumoniae MITC95” value in experiment [5] came out at 3.125 µM. Moreover, the “Escherichia coli MITC95” value in experiment [6] came to 3.125 µM.

In the case of `Nc1ncc2c(-c3ccc(C(F)(F)F)c(S(N)(=O)=O)c3-c3nn[nH]n3)cccc2n1` [Example 556, 3-(2-aminoquinazolin-5-yl)-2-(2H-tetrazol-5-yl)-6-(trifluoromethyl)benzenesulfonamide], the IC50 in experiment [1] came to 125 pM; in experiment [2] (setting [7]) it was 122 pM; in experiment [3], 2970 pM. In addition, in experiment [4], the “Serratia marcescens MITC95” value is 12.5 µM. The “Klebsiella pneumoniae MITC95” value in experiment [5] is 12.5 µM. The “Escherichia coli MITC95” value in experiment [6] was 25 µM.

In the case of `Nc1ncc2cccc(-c3ccc(C(F)(F)F)c(S(N)(=O)=O)c3-c3nn[nH]n3)c2n1` [Example 558, 3-(2-aminoquinazolin-8-yl)-2-(2H-tetrazol-5-yl)-6-(trifluoromethyl)benzenesulfonamide], the IC50 in experiment [1] stood at 145 pM; in experiment [2] (setting [7]) it was 178 pM; in experiment [3], 1960 pM. Further, the “Serratia marcescens MITC95” value in experiment [4] was found to be 6.25 µM. Moreover, the “Klebsiella pneumoniae MITC95” value in experiment [5] was determined as 6.25 µM. Besides, in experiment [6], the “Escherichia coli MITC95” value stood at 6.25 µM.

On to `NS(=O)(=O)c1c(C(F)(F)F)ccc(-c2ccc(-c3c[nH]c(O)n3)cc2)c1-c1nnn[nH]1.O=C(O)C(F)(F)F` [Example 559, 3-[4-(2-hydroxy-1H-imidazol-4-yl)phenyl]-2-(1H-tetrazol-5-yl)-6-(trifluoromethyl)benzenesulfonamide], for which the IC50 in experiment [1] came to 439 pM; in experiment [2] (setting [7]), 212 pM; in experiment [3], 534 pM. The “Serratia marcescens MITC95” value in experiment [4] is 6.25 µM. Also, the “Klebsiella pneumoniae MITC95” value in experiment [5] is 12.5 µM. In addition, the “Escherichia coli MITC95” value in experiment [6] amounted to 12.5 µM.

As to `Cn1c(-c2ccc(-c3ccc(C(F)(F)F)c(S(N)(=O)=O)c3-c3nnn[nH]3)cc2)cnc1N.O=C(O)C(F)(F)F` [Example 560, 3-[4-(2-amino-3-methyl-imidazol-4-yl)phenyl]-2-(1H-tetrazol-5-yl)-6-(trifluoromethyl)benzenesulfonamide], the IC50 came to 727 pM in experiment [1], 212 pM in experiment [2] (setting [7]) and 898 pM in experiment [3]. Further, the “Serratia marcescens MITC95” value in experiment [4] worked out at 3.125 µM. For the same compound, the “Klebsiella pneumoniae MITC95” value in experiment [5] is 6.25 µM. In experiment [6], the “Escherichia coli MITC95” value turned out to be 6.25 µM.

With `Nc1nc2c(-c3ccc(C(F)(F)F)c(S(N)(=O)=O)c3-c3nnn[nH]3)cccc2s1` [Example 561, 3-(2-aminobenzo[d]thiazol-4-yl)-2-(1H-tetrazol-5-yl)-6-(trifluoromethyl)benzenesulfonamide], the IC50 in experiment [1] was 153 pM; in experiment [2] (setting [7]), 434 pM; in experiment [3], 993 pM. Moreover, the “Serratia marcescens MITC95” value in experiment [4] was 0.09375 µM. The “Klebsiella pneumoniae MITC95” value in experiment [5] turned out to be 2.563 µM. Also, the “Escherichia coli MITC95” value in experiment [6] turned out to be 0.668 µM.

On to `Nc1ccc(-c2ccc(C(F)(F)F)c(S(N)(=O)=O)c2-c2nnn[nH]2)nc1` [Example 562, 3-(5-aminopyridin-2-yl)-2-(1H-tetrazol-5-yl)-6-(trifluoromethyl)benzenesulfonamide], for which the IC50 in experiment [1] was found to be 5000 pM; in experiment [2] (setting [7]), 2350 pM; in experiment [3] it was 7550 pM. Also, the “Serratia marcescens MITC95” value in experiment [4] amounted to 0.3906 µM. The “Klebsiella pneumoniae MITC95” value in experiment [5] stood at 3.125 µM. Besides, in experiment [6], the “Escherichia coli MITC95” value stood at 0.5859 µM.

The values are drawn from patent US9708336B2, “Metallo-beta-lactamase inhibitors” (priority 2014, dated 2017).
